Values after ≈ are worked out from the molar mass of the structure shown.

The text below walks through data of patent publication US7772429B2, “Diphenylazetidinone with improved physiological properties, process for its preparation, medicaments comprising this compound, and its use” (Sanofi-Aventis Deutschland GmbH, priority 2003, dated 2010).

Series [1] in a line: Stability in solution in aqueous buffers (HPLC/UV). The format is physicochemical. The note with it: for Increase of the area of the impurities in percent: 24 hours at 37° C. The protocol: The stability of dissolved compound I and of dissolved C1 was determined in aqueous buffers in the pH range 1.2-8.0. 1 mg of the compound in question was weighed into a 5 ml measuring flask. A small amount of acetonitrile was used to dissolve the substance. The flask was then filled up to the mark with the aqueous buffer. The precipitated compound was centrifuged and the clear supernatant was then tested for stability in solution for 24 hours at 37° C. The samples were evaluated using HPLC/UV.

For series [2], the system named is cholesterol absorption (uptake of 14C-cholesterol by the liver). The series is described as follows: Cholesterol absorption test: uptake of 14C-cholesterol by the liver. The following applies: dose at which uptake of 14C-cholesterol by the liver is halved vs control group; mouse, peroral. The format is in vivo, NMRI mice.
A short description of series [3]: Solubility in aqueous buffers, FaSSIF and FeSSIF (HPLC/UV). The format is physicochemical. The note with it: for solubility at 4 h: 25 °C, thermodynamic from solid. The protocol: FaSSIF (fasted State Simulating Intestinal Fluid) and FeSSIF (Fed State Simulating Intestinal Fluid) media which reflect the pH/solubilization conditions in the upper small intestine in the pre- and postprandial state, respectively, were used to test this improved solubility.
0.5 mg of the compound to be tested was weighed exactly into an Eppendorf cap, and 0.5 ml of the solvent in question (aqueous buffer) was added. The Eppendorf cap was then introduced into a thermomixer and, at 25° C., shaken at 1 400 rpm for 4 hours.
The Eppendorf cap was then introduced into a centrifuge. Following centrifugation, an aliquot of the supernatant was used to determine the amount dissolved, using HPLC/UV analysis.

The mark [4] stands for this setting: FaSSIF, repetition of the tests.
[5] abbreviates: FeSSIF, repetition of the tests.
Where [6] appears, read: aqueous buffer, pH 1.2, simulated gastric fluid, pH 1.2 aqueous buffer, 4 hours.
The mark [7] stands for this setting: aqueous buffer, pH 4.5, aqueous buffer, 4 hours.
Where [8] appears, read: aqueous buffer, pH 6.8, aqueous buffer, 4 hours.
Setting [9] is: aqueous buffer, pH 8, aqueous buffer, 4 hours.
Setting [10] is: based on an available volume of 250 ml (Biopharmaceutical Classification System), best case.

With `COc1ccc([C@@H]2[C@@H](CC[C@H](O)c3ccc(F)cc3)C(=O)N2c2ccc(CNC(=O)CCCCCCCCCCC(=O)NC[C@H](O)[C@@H](O)[C@H](O)[C@H](O)CO)cc2)cc1` [Example I, dodecanedioic acid 4-[(2S,3R)-3-[(S)-3-(4-fluorophenyl)-3-hydroxypropyl]-2-(4-methoxyphenyl)-4-oxoazetidin-1-yl]benzylamide ((2S,3R,4R,5R)-2,3,4,5,6-pentahydroxyhexyl)amide], the “times more stable than C1” value in series [1] (depending on the pH, relative to C1) is “at least 2.7 times”. The “Increase of the area of the impurities in percent” value worked out at 4.9% in series [1] (pH 1.2), 0% in series [1] (pH 6.8) and 0.2% in series [1] (pH 8.0). Also, the “ED50 (liver)” value in series [2] stood at 0.005 mg/mouse. In addition, the solubility – broadly, the dissolved amount per volume that the medium holds – at 4 h in series [3] (FaSSIF, 4 hours) was 28 µg/mL (≈ 34.6 µM); in series [3] (setting [4]), 43 µg/mL (≈ 53.1 µM); in series [3] (FeSSIF, 4 hours), 454 µg/mL (≈ 561 µM); in series [3] (setting [5]), 290 µg/mL (≈ 358 µM); in series [3] (setting [6]), 3 µg/mL (≈ 3.7 µM); in series [3] (setting [7]) it was 4 µg/mL (≈ 4.94 µM). Further, the solubility at 4 h in series [3] (setting [8]) stood at 2 µg/mL (≈ 2.47 µM); in series [3] (setting [9]) it was 2 µg/mL (≈ 2.47 µM); in series [3] (water, shaken 4 hours), 3 µg/mL (≈ 3.7 µM). In addition, the “pH of the water sample (Water (pH))” value in series [3] (Water, 25° C., shaken 4 hours) turned out to be 6.8. In series [3] (setting [10]), this compound showed a soluble dose of approximately 100 mg.
`COc1ccc([C@@H]2[C@@H](CC[C@H](O)c3ccc(F)cc3)C(=O)N2c2ccc(CNC(=O)CCCCCCCCCCCNC(=O)[C@H](O)[C@@H](O)[C@H](O)[C@H](O)CO)cc2)cc1` [Example C1, reference compound]: the results for the “Increase of the area of the impurities in percent” value in series [1] (pH 1.2), in series [1] (pH 6.8) and in series [1] (pH 8.0) were 13.3%, 0.5% and 4.6%, respectively. Further, the solubility at 4 h was 5 µg/mL (≈ 6.17 µM) in series [3] (FaSSIF, 4 hours); 6 µg/mL (≈ 7.41 µM) in series [3] (setting [4]); 18 µg/mL (≈ 22.2 µM) in series [3] (FeSSIF, 4 hours); 20 µg/mL (≈ 24.7 µM) in series [3] (setting [5]); less than 1 µg/mL in series [3] (setting [6]); less than 1 µg/mL in series [3] (setting [7]). Further, the solubility at 4 h is less than 1 µg/mL in series [3] (setting [8]); less than 1 µg/mL in series [3] (setting [9]); less than 1 µg/mL in series [3] (water, shaken 4 hours). Moreover, the soluble dose is given as approximately 5 mg in series [3] (setting [10]) and 1.25 mg in series [3] (based on an available volume of 250 ml, worst case).
